Experimental findings from patent US20230122249A1, “1H-PYRAZOLO[4,3-d]PYRIMIDINE COMPOUNDS AS TOLL-LIKE RECEPTOR 7 (TLR7) AGONISTS” (BRISTOL-MYERS SQUIBB COMPANY, priority 2020, published 2023) are described below.

For assay [1], the system named is CD69 in human whole blood. The experiment in a line: Induction of CD69 in human whole blood (hWB). Format: cell-based. Conditions: heparinized human whole blood, 17 h, CD69 surface staining; 100% set to 1 uM resiquimod; average where assay repeated. The method, then: The induction of Type I interferon (IFN) MX-1 genes and the B-cell activation marker CD69 are downstream events that occur upon activation of the TLR7 pathway. The following is a human whole blood assay that measures their induction in response to a TLR7 agonist.
Heparinized human whole blood was harvested from human subjects and treated with test TLR7 agonist compounds at 1 mM. The blood was diluted with RPMI 1640 media and Echo was used to predot 10 nL per well giving a final concentration of 1 uM (10 nL in 10 uL of blood). After mixing on a shaker for 30 sec, the plates were covered and placed in a 37° C. chamber for o/n=17 hrs. Fixing/lysis buffer was prepared (5×->1×in H2O, warm at 37° C.; Cat# BD 558049) and kept the perm buffer (on ice) for later use.
For surface markers staining (CD69): prepared surface Abs: 0.045 ul hCD14-FITC (ThermoFisher Cat # MHCD1401)+0.6 ul hCD19-ef450 (ThermoFisher Cat #48-0198-42)+1.5 ul hCD69-PE (cat# BD555531)+0.855 ul FACS buffer. Added 3 ul/well, spin1000 rpm for 1 min and mixed on shaker for 30 sec, put on ice for 30 mins. Stop stimulation after 30 minutes with 70 uL of prewarmed 1×fix/lysis buffer and use Feliex mate to resuspend (15 times, change tips for each plate) and incubate at 37° C. for 10 minutes.
Centrifuge at 2000 rpm for 5 minutes aspirate with HCS plate washer, mix on shaker for 30 sec and then wash with 70 uL in dPBS and pelleted 2 xs (2000 rpm for 5 min) and 50 ul wash in FACS buffer pelleted 1 xs(2000 rpm for 5 min). Mix on shaker for 30 sec. For Intracellular markers staining (MX-1): Add 50 ul of BD Perm buffer III and mix on shaker for 30 sec. Incubate on ice for 30 minutes (in the dark). Wash with 50 uL of FACS buffer 2×(spin @2300 rpm×5 min after perm) followed by mixing on shaker for 30 sec. Resuspended in 20 ul of FACS buffer containing MX1 antibody ( )(4812)-Alexa 647: Novus Biologicals #NBP2-43704AF647) 20 ul FACS bf+0.8 ul hlgG+0.04 ul MX-1. Spin 1000 rpm for 1 min, mix on shaker for 30 se and the samples were incubated at RT in the dark for 45 minutes followed by washing 2×FACS buffer (spin @2300 rpm×5 min after perm). Resuspend 20 ul (35 uL total per well) of FACS buffer and cover with foil and place in 4° C. to read the following day. Plates were read on iQuePlus. The results were loaded into toolset and […] curves are generated in curve master. The y-axis 100% is set to 1 uM of resiquimod.

The target of a further assay is T1, human TLR7 (Homo sapiens, UniProt Q9NYK1).
T1 construct: host or cells: HEK-Blue TLR7 cells (engineered human embryonic kidney cells)
T1 sequence (Q9NYK1 27-1049): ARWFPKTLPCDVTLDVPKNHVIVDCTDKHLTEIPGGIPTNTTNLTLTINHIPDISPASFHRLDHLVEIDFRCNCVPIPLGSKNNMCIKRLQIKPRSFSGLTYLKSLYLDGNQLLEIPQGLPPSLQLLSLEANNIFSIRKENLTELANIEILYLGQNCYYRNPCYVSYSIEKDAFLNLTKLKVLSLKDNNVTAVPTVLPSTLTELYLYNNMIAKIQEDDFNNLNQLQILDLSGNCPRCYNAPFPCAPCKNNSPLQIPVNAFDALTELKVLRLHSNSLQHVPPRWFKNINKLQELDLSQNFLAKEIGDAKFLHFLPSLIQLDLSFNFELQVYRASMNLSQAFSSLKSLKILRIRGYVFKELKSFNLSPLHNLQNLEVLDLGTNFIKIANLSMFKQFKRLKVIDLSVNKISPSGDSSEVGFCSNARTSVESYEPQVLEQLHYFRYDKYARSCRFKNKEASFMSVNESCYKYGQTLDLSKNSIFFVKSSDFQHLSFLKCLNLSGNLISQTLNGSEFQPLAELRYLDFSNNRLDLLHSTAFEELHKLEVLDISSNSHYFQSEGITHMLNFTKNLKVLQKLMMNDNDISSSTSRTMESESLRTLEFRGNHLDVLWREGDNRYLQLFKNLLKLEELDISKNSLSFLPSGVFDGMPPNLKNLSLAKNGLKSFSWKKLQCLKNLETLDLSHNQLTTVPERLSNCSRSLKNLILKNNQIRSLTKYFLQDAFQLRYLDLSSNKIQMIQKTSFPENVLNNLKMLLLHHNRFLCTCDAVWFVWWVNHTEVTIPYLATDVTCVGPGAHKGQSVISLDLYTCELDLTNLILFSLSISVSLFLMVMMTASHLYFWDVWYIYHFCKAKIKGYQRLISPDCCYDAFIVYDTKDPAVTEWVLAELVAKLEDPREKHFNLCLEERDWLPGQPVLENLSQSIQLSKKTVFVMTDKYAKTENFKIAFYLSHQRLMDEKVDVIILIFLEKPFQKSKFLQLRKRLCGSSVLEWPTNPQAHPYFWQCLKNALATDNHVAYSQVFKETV
The experiment in a line: Human TLR7 agonist activity (hTLR7 reporter) assay in HEK-Blue TLR7 cells, SEAP readout. Format: cell-based. Particulars: 18 h treatment, average where assay repeated. As to the method: This procedure describes a method for assaying human TLR7 (hTLR7) agonist activity of the compounds disclosed in this specification.
HEK-Blue™ TLR7 cells were added to each well of a 384-well tissue-culture plate (15,000 cells per well) and incubated 16-18 h at 37° C., 5% CO2. Compounds (100 nl) were dispensed into wells containing the HEK-Blue™ TLR cells and the treated cells were incubated at 37° C., 5% CO2. After 18 h treatment ten microliters of freshly-prepared Quanti-Blue™ reagent (Invivogen) was added to each well, incubated for 30 min (37° C., 5% CO2) and SEAP levels measured using an Envision plate reader (OD=620 nm). The half maximal effective concentration values (EC50; compound concentration which induced a response halfway between the assay baseline and maximum) were calculated.

What is called EC50 is the concentration at which the effect is half-maximal. As to `COc1cc(CN2CC3(C2)CN(C(C)=O)C3)ccc1Cn1ncc2nc(N)nc(NCC3CC4(CC4)C3)c21` [Compound 108], the figures for the EC50 (in assay [1]; on human TLR7) were 52.9 nM and 50.1 nM, respectively.
For the compound `CCCCNc1nc(N)nc2cnn(Cc3ccc(CN4CC5(C4)CN(C(=O)C4(C)CC4)C5)cc3OC)c12` [Compound 111], the EC50 in assay [1] came out at 24.9 nM; on human TLR7, 52.5 nM.
With `CCC[C@@H](CCO)Nc1nc(N)nc2cnn(Cc3ccc(CN4CC5(CCO5)C4)cc3OC)c12` [Compound 112], the EC50 in assay [1] is 333 nM; on human TLR7, 1.5 nM.
As for `CCC[C@@H](CCO)Nc1nc(N)nc2cnn(Cc3ccc(CN4CC5(CCOCC5)C4)cc3OC)c12` [Compound 113], the figures for the 50% effective concentration (EC50) (in assay [1]; on human TLR7) were 0.5 nM and 4.6 nM, respectively.
For `COc1cc(CN2CC3(CCOCC3)C2)ccc1Cn1ncc2nc(N)nc(NCC3CC4(C3)CC4F)c21` (stereo not drawn) [Compound 117], in that order: 122 nM and 141 nM.
In the case of `COc1cc(CN2C[C@H]3COC[C@H]3C2)ccc1Cn1ncc2nc(N)nc(NCC3CC4(C3)CC4F)c21` (stereo partly drawn) [Compound 119], the EC50 in assay [1] amounted to 258 nM; at human TLR7, 144 nM.
In the case of `COc1cc(CN2CC3(C2)CN(C(C)=O)C3)ccc1Cn1ncc2nc(N)nc(NCC3CC4(C3)CC4F)c21` (stereo not drawn) [Compound 121], the results for the EC50 (in assay [1]; on human TLR7) were 160 nM and 358 nM, respectively.
Consider `COc1cc(CN2CC3(CCO3)C2)ccc1Cn1ncc2nc(N)nc(NCC3CC4(C3)CC4F)c21` (stereo not drawn) [Compound 127], for which the EC50 in assay [1] came out at 413 nM; on human TLR7, 214 nM.
On to `COc1cc(CN2CC3(CN(C)C3)C2)ccc1Cn1ncc2nc(N)nc(NCC3CC4(CC4)C3)c21` [Compound 131], for which the EC50 in assay [1] was determined as 4.6 nM; at human TLR7, 234 nM.
Consider `COc1cc(CN2CC3(C2)CS(=O)(=O)C3)ccc1Cn1ncc2nc(N)nc(NCC3CC4(C3)CC4(F)F)c21` (stereo not drawn) [Compound 139], for which the EC50 was found to be 464 nM in assay [1] and 382 nM on human TLR7.
Taken in the same sequence, the figures for `COc1cc(CN2C[C@@H]3C[C@H]2CN3)ccc1Cn1ncc2nc(N)nc(NCC3CC4(C3)CC4(F)F)c21` (stereo partly drawn) [Compound 141] were 244 nM and 266 nM.
Taken in the same sequence, the figures for `COc1cc(CN2CC3(C2)CS(=O)(=O)C3)ccc1Cn1ncc2nc(N)nc(NCC3CC4(CC4)C3)c21` (stereo not drawn) [Compound 145] were 326 nM and 179 nM.
Taken in the same sequence, the figures for `COc1cc(CN2CC3(CC(O)C3)C2)ccc1Cn1ncc2nc(N)nc(NCC3CC4(CC4)C3)c21` (stereo not drawn) [Compound 146] were 8.9 nM and 42.5 nM.
In the case of `COc1cc(CN2CC3(CC(OC)C3)C2)ccc1Cn1ncc2nc(N)nc(NCC3CC4(CC4)C3)c21` (stereo not drawn) [Compound 147], the EC50 in assay [1] stood at 37 nM; at human TLR7, 40.5 nM.
Taken in the same sequence, the figures for `COc1cc(CN2C[C@H]3CN(C)C[C@H]3C2)ccc1Cn1ncc2nc(N)nc(NCC3CC4(CC4)C3)c21` [Compound 148] were 9.6 nM and 74.2 nM.
As to `COc1cc(C(=O)N2CC3(CN(C)C3)C2)ccc1Cn1ncc2nc(N)nc(NCC3CC4(C3)CC4(F)F)c21` (stereo not drawn) [Compound 149], the EC50 in assay [1] was 31 nM; at human TLR7 it was 42 nM.
Taken in the same sequence, the figures for `COc1cc(C(=O)N2C[C@H]3CN(C)C[C@H]3C2)ccc1Cn1ncc2nc(N)nc(NCC3CC4(C3)CC4(F)F)c21` (stereo partly drawn) [Compound 150] were 17.2 nM and 9.4 nM.
For `COc1cc(C(=O)N2C[C@@H]3C[C@H]2CN3C)ccc1Cn1ncc2nc(N)nc(NCC3CC4(C3)CC4(F)F)c21` (stereo partly drawn) [Compound 151], in that order: 32.4 nM and 45 nM.
Taken in the same sequence, the figures for `COc1cc(CN2CC3(CNC3)C2)ccc1Cn1ncc2nc(N)nc(NCC3CC(C4CC4)C3)c21` (stereo not drawn) [Compound 152] were 152 nM and 167 nM.
Take `COc1cc(CNC2CCC2)ccc1Cn1ncc2nc(N)nc(NCC3CC4(CCC4)C3)c21` [Compound 153]: the values for the EC50 (in assay [1]; on human TLR7) were 189 nM and 30.5 nM, respectively.
In the case of `COc1cc(CNC2CCOCC2)ccc1Cn1ncc2nc(N)nc(NCC3CC4(CCC4)C3)c21` [Compound 154], the EC50 in assay [1] came to 130 nM; on human TLR7 it was 26.9 nM.
As for `COc1cc(CN2CC3(CNC3)C2)ccc1Cn1ncc2nc(N)nc(NCC3CC4(CCC4)C3)c21` [Compound 155], the EC50 came to 552 nM in assay [1] and 583 nM at human TLR7.
As to `COc1cc(CN2C[C@@H]3C[C@H]2CN3)ccc1Cn1ncc2nc(N)nc(NCC3CC4(CCC4)C3)c21` [Compound 156], the EC50 amounted to 374 nM in assay [1] and 76.9 nM on human TLR7.
For `COc1cc(CN2C[C@H]3CNC[C@H]3C2)ccc1Cn1ncc2nc(N)nc(NCC3CC4(CCC4)C3)c21` [Compound 157], in that order: 364 nM and 65.7 nM.
For `COc1cc(CN2CC3(CC(O)C3)C2)ccc1Cn1ncc2nc(N)nc(NCC3CC4(CCC4)C3)c21` (stereo not drawn) [Compound 158], in that order: 39.1 nM and 38 nM.
For `COc1cc(C(=O)N2C[C@H]3CNC[C@H]3C2)ccc1Cn1ncc2nc(N)nc(NCC3CC4(C3)CC4(F)F)c21` (stereo partly drawn) [Compound 159], in that order: 1000 nM and 909 nM.
For the compound `COc1cc(C(=O)NCCN(C)C)ccc1Cn1ncc2nc(N)nc(NCC3CC4(C3)CC4(F)F)c21` (stereo not drawn) [Compound 163], the EC50 was 268 nM in assay [1] and 705 nM on human TLR7.
For `COc1cc(CO)ccc1Cn1ncc2nc(N)nc(NCC3CC4(CC4)C3)c21` [Compound 166, (4-((5-amino-7-((spiro[2.3]hexan-5-ylmethyl)amino)-1H-pyrazolo[4,3-d]pyrimidin-1-yl)methyl)-3-methoxyphenyl)methanol], the EC50 in assay [1] turned out to be 117 nM; on human TLR7, 261 nM.
Taken in the same sequence, the figures for `COc1cc(CN[C@H]2C[C@H](O)C2)ccc1Cn1ncc2nc(N)nc(NCC3CC4(CC4)C3)c21` [Compound 167] were 1.7 nM and 23 nM.
Taken in the same sequence, the figures for `COc1cc(CN2CC(CCO)C2)ccc1Cn1ncc2nc(N)nc(NCC3CC4(CC4)C3)c21` [Compound 168] were 3.8 nM and 30.4 nM.
